Values joined by “and” are separate entries in the source; they are usually repeats but may differ in a detail not shown here. Identical values can stand only once. Like-named read-outs stand apart in the source and are kept apart here.
Assays:
[1] = not given; remark: listed apart in the source

SMILES: O=C1OCCOc2ncc(F)cc2[C@H]2CCCN2c2ccn3ncc1c3n2
- ring closure, yield of all isomers (from O=C(OCCCl)c1cnn2ccc(N3CCC[C@@H]3c3cc(F)c[nH]c3=O)nc12, ether bond, Cs2CO3, DMF, 22.2 mM, 90.0 °C, 16.0 h): 22%

SMILES: O=C1NC[C@H](O)COc2ccc(F)cc2[C@H]2C[C@@H](O)CN2c2ccn3ncc1c3n2
- ring closure, isolated yield ([1]; from O=C(NC[C@H](O)CCl)c1cnn2ccc(N3CC(O)C[C@@H]3c3cc(F)ccc3O)nc12, ether bond, 14-membered ring, Cs2CO3, DMF, 21.6 mM, 85.0 °C, 0.5 h): 16.2%

SMILES: COC(=O)c1cnn2ccc(N3CCC[C@@H]3c3cc(F)cnc3CCC(C)(C)NC(=O)OC(C)(C)C)nc12
- ring closure, isolated yield ([1]; the molecule shown is the open-chain precursor, amide bond, 13-membered ring, EDCI/HOBt/TEA, DMF, 39.4 mM, 45.0 °C, 3 steps): 48.3%

SMILES: O=C1NC[C@H](O)COc2ccc(F)cc2C2CC(F)(F)CN2c2ccn3ncc1c3n2 (stereo partly shown)
- ring closure, isolated yield ([1]; from O=C(NC[C@H](O)CCl)c1cnn2ccc(N3CC(F)(F)CC3c3cc(F)ccc3O)nc12, ether bond, 14-membered ring, Cs2CO3, DMF, 20.0 mM, 85.0 °C, 0.5 h): 20% and 24%

SMILES: O=C1NCCCc2ncc(F)cc2[C@H]2CCCN2c2ccn3ncc1c3n2
- ring closure, isolated yield ([1]; from NCCCc1ncc(F)cc1[C@H]1CCCN1c1ccn2ncc(C(=O)O)c2n1, amide bond, 13-membered ring, HATU/DIEA, DMF, 8.4 mM, 3.0 h): 39%

SMILES: O=C1NC[C@H](O)Cn2cc(F)cc(c2=O)[C@H]2CCCN2c2ccn3ncc1c3n2
- ring closure, yield of all isomers (from O=C(NC[C@H](O)CCl)c1cnn2ccc(N3CCC[C@@H]3c3cc(F)c[nH]c3=O)nc12, amine bond, Cs2CO3, DMF, […], 85.0 °C, 2.0 h): 12%

SMILES: O=C1Nc2ncccc2COc2ncc(F)cc2[C@H]2CCCN2c2ccn3ncc1c3n2
- ring closure, isolated yield ([1]; from O=C(Nc1ncccc1CCl)c1cnn2ccc(N3CCC[C@@H]3c3cc(F)cnc3O)nc12, ether bond, 14-membered ring, Cs2CO3, DMF, 84.8 mM, 60.0 °C, 4.0 h, with chain assembly): 2.2%

SMILES: Fc1ccc2c(c1)[C@H]1CCCN1c1ccn3ncc(c3n1)CNCCO2
- ring closure, isolated yield ([1]; from NCCOc1ccc(F)cc1[C@H]1CCCN1c1ccn2ncc(C=O)c2n1, amine bond, 13-membered ring, Me4NBH(OAc)3, DCM, 8.4 mM, 25.0 °C, 16.0 h): 21.6%

SMILES: NCCCOc1ccc(F)cc1[C@H]1CCCN1c1ccn2ncc(CO)c2n1
- ring closure, isolated yield ([1]; the molecule shown is the open-chain precursor, amine bond, 14-membered ring, PS-PPh3/CCl4, DCM, 26.0 mM, 25.0 °C): 57.5%

SMILES: O=C1NCCCOc2ncc(F)cc2[C@H]2CCCN2c2ccn3ncc1c3n2
- ring closure, isolated yield ([1]; from O=C(NCCCCl)c1cnn2ccc(N3CCC[C@@H]3c3cc(F)cnc3O)nc12, ether bond, 14-membered ring, Cs2CO3, DMF, […], 85.0 °C, 16.0 h): 44%

SMILES: O=C1NCCCCn2cc(F)cc(c2=O)[C@H]2CCCN2c2ccn3ncc1c3n2
- ring closure, isolated yield ([1]; other bond, 15-membered ring): 6%

SMILES: O=C1NCCCOc2ccc(F)cc2[C@H]2CCCN2c2ccn3ncc1c3n2
- ring closure, isolated yield ([1]; from CCOC(=O)c1cnn2ccc(N3CCC[C@@H]3c3cc(F)ccc3OCCCN)nc12, amide bond, 14-membered ring, DIEA, EtOH, 230.0 mM, 200.0 °C, 16.0 h): 50%

SMILES: O=C1NCCCn2cc(F)cc(c2=O)[C@H]2CCCN2c2ccn3ncc1c3n2
- ring closure, yield of all isomers (from NCCCn1cc(F)cc([C@H]2CCCN2c2ccn3ncc(C(=O)O)c3n2)c1=O, amide bond, EDCI/HOBt, DCM, 26.4 mM, 25.0 °C, 6.0 h): 39%
